Molecular target: T1, AbyV (Micromonospora maris, UniProt F4F6Q5)
T1 construct: N-terminal His6 tag (pOPINF::abyV), E. coli BL21(DE3)
Assay: titration of substrate into buffered AbyV solution
Type: binding

T1 sequence (F4F6Q5 entry or part of it): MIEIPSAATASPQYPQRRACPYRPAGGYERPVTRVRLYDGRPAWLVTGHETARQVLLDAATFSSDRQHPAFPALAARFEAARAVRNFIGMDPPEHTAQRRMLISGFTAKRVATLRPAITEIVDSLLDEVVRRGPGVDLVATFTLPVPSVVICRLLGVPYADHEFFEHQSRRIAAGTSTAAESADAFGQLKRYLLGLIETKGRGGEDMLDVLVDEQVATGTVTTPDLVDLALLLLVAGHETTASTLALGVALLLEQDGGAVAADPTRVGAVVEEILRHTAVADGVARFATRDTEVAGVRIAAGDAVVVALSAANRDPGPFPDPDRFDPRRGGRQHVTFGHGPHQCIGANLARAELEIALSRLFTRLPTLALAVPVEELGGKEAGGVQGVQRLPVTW

Kd: 34 ± 7 µM
SMILES: C[C@@H]1C[C@H](C)C(=O)/C=C/[C@@H]2C=C[C@H](C)C[C@@]23OC(=O)C(=C3O)C1=O (mixture of isomers) [compound 3, spirotetronate 3]

Reference: PMC10952897, “The Role of Cytochrome P450 AbyV in the Final Stages of Abyssomicin C Biosynthesis” (Angewandte Chemie (Weinheim an Der Bergstrasse, Germany), 2022)
